In ChEMBL document CHEMBL5126538, “A score years' update in the synthesis and biological evaluation of medicinally important 2-pyridones” (Eur J Med Chem, 2022):
Each block holds one compound with its values, some of them ahead of it.

Key:
[1] = test system: HepG2; assay: Cytotoxicity against human HepG2 cells assessed as cell growth inhibition incubated for 72 hrs by SRB assay; type: functional, cell-based; conditions: HepG2, 72 h
[2] = test system: Human adenovirus 7; assay: Antiviral activity against Human adenovirus 7 infected in human HEp-2 cells assessed as reduction in viral growth incubated for 0.5 hrs followed by cell infection measured after 1 hr by crystal violet staining based assay relative to control; type: functional; parameters: scale not given: the % may be the effect or the level left; conditions: time 1.5 hrs
[3] = test system: Hepatovirus A; assay: Antiviral activity against Hepatitis A virus HM175 infected in monkey FRhK-4 cells assessed as reduction in viral growth incubated for 0.5 hrs followed by cell infection measured after 1 hr by crystal violet staining based assay relative to control; type: functional; parameters: scale not given: the % may be the effect or the level left; conditions: time 1.5 hrs
[4] = test system: Coxsackievirus B4; assay: Antiviral activity against Coxsackievirus B4 infected in African green monkey BGM cells assessed as reduction in viral growth incubated for 0.5 hrs followed by cell infection measured after 1 hr by crystal violet staining based assay relative to control; type: functional; parameters: scale not given: the % may be the effect or the level left; conditions: time 1.5 hrs
[5] = test system: Human alphaherpesvirus 1; assay: Antiviral activity against […] type 1 infected in African green monkey Vero cells assessed as reduction in viral growth incubated for 0.5 hrs followed by cell infection measured after 1 hr by crystal violet staining based assay relative to control; type: functional; parameters: scale not given: the % may be the effect or the level left; conditions: time 1.5 hrs
[6] = Inhibition of HIV reverse transcriptase; parameters: species or system Human immunodeficiency virus
[7] = target: Interleukin-6 (Homo sapiens) (UniProt P05231); assay: Inhibition of IL-6 (unknown origin) relative to control; conditions: concentration not given here
[8] = Inhibition of quorum sensing system in Pseudomonas aeruginosa assessed as reduction in LasI gene expression measured per well
[9] = target: Coagulation factor VII/tissue factor (Homo sapiens, UniProt P08709); assay: Inhibition of TF/VIIA complex (unknown origin); type: protein-complex assay
[10] = target: Human immunodeficiency virus type 1 reverse transcriptase (Human immunodeficiency virus 1, UniProt Q72547); assay: Inhibition of HIV-1 reverse transcriptase using rC.dG as primer/template
[11] = test system: Staphylococcus aureus; assay: Antibacterial activity against Staphylococcus aureus assessed as zone of inhibition incubated for 24 hrs by well diffusion assay; type: functional
[12] = test system: Bacillus subtilis; assay: Antibacterial activity against Bacillus subtilis assessed as zone of inhibition incubated for 24 hrs by well diffusion assay; type: functional
[13] = test system: Escherichia coli; assay: Antibacterial activity against Escherichia coli assessed as zone of inhibition incubated for 24 hrs by well diffusion assay; type: functional
[14] = test system: Aspergillus niger; assay: Antifungal activity against Aspergillus niger assessed as zone of inhibition incubated for 24 hrs by well diffusion assay; type: functional

Chain of Coagulation factor VII/tissue factor (P08709 61-212 limits assumed): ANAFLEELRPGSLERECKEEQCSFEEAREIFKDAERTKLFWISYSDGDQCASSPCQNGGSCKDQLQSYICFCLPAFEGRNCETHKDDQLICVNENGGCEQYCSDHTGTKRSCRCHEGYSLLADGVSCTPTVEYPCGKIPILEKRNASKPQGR
Chain of Coagulation factor VII/tissue factor (P08709 213-466 limits assumed): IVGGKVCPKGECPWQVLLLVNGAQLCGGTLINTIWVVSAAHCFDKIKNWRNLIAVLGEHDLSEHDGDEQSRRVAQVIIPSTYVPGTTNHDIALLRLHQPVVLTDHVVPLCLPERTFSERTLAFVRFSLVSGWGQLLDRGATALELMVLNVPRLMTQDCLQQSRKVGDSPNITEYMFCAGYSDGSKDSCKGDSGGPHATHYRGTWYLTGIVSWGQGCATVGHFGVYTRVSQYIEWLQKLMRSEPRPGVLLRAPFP
Chain of Coagulation factor VII/tissue factor (P13726 33-295 partner limits assumed): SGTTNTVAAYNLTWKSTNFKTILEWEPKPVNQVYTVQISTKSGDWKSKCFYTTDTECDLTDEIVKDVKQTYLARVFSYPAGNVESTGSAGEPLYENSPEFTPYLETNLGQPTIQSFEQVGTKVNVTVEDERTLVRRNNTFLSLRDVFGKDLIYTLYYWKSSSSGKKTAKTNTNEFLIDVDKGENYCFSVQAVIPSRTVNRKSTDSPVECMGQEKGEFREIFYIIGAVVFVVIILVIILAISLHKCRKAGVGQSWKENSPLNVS
Chain of Interleukin-6 (Homo sapiens) (P05231 whole entry): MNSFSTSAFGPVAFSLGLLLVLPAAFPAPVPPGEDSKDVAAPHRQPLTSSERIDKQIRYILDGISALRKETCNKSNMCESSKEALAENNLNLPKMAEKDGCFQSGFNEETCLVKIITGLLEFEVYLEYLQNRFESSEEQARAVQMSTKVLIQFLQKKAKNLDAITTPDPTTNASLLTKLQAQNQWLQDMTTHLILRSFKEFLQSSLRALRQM

Compound: COC(=O)c1ccccc1-n1c(N)c(C#N)c(-c2ccc(N(C)C)cc2)cc1=O
- IC50 [1]: 2410 nM

Compound: N#Cc1cc(-c2nc3ccccc3s2)c(=O)n(NS(=O)(=O)c2ccccc2)c1N
- Activity [2]: <=70%
- Activity [3]: <=70%
- Activity [4]: <=70%
- Activity [5]: <=70%

Compound: Cc1ccc(S(=O)(=O)Nn2c3c(cc(-c4nc5ccccc5s4)c2=O)CCCC3)cc1
- Activity [2]: <=70%
- Activity [3]: <=70%
- Activity [4]: <=70%
- Activity [5]: <=70%

Compound: CCc1cc(NCc2cc3ccccc3o2)c(O)nc1C
- IC50 [10]: 0.33 nM

Compound: COC(=O)c1ccccc1-n1c(N)c(C(N)=O)c(-c2ccc(C)cc2)cc1=O
- IC50 [1]: 1340 nM

Compound: Cc1[nH]c(=O)c(C#N)c(-c2ccccc2Br)c1C(=O)Nc1ccccc1
- diameter of the inhibition zone (DIZ) [11]: 4.25 mm
- diameter of the inhibition zone (DIZ) [12]: 3.5 mm
- diameter of the inhibition zone (DIZ) [13]: 3.75 mm
- diameter of the inhibition zone (DIZ) [14]: 3 mm

Compound: O=c1c(-c2nc3ccccc3s2)cc2c(n1NS(=O)(=O)c1ccc(Cl)cc1)CCCC2
- Activity [2]: <=70%
- Activity [3]: <=70%
- Activity [4]: <=70%
- Activity [5]: <=70%

Compound: CCc1c(O)cc(C(C)C)[nH]c1=O
- MIC [8]: 6.35 µg

The remaining lines, values ahead:

- IC50 [6]: 0.058 nM
Compound: CCc1cc(NCN2C(=O)c3ccccc3C2=O)c(O)nc1C

- IC50 [6]: 6.2 nM
Compound: CCc1cc(CCN2C(=O)c3ccccc3C2=O)c(O)nc1C

- inhibition [7]: 65.1%
Compound: COc1ccc(-c2c(C(=O)Nc3ccc(O)cc3)c(N)[nH]c(=O)c2C#N)cc1

- MIC [8]: 6.35 µg
Compound: Cc1c(O)cc(CC(C)C)[nH]c1=O

- MIC [8]: 6.35 µg
Compound: CC[C@@H](C)c1cc(O)c(C)c(=O)[nH]1

- IC50 [9]: 52 nM
Compound: CC(C)Nc1ccc(-c2cc(N)cc([N+](=O)[O-])c2)n(CC(=O)NCc2ccc(C(=N)N)cc2)c1=O

- IC50 [9]: 118 nM
Compound: CC(C)Nc1ccc(-c2cc(C(=O)O)cc([N+](=O)[O-])c2)n(CC(=O)NCc2ccc(C(=N)N)cc2)c1=O

- MIC [8]: 6.35 µg
Compound: CCCc1cc(O)c(CC)c(=O)[nH]1
